Measured values published in patent publication US7659296B2, “Vitamin D receptor modulators” (Eli Lilly and Company, priority 2004, dated 2010).

Key:
Type in all cases: cell-based
[1] = system: KERtr cells (Human skin keratinocyte); test: Keratinocyte Proliferation Assay; settings: BrdU incorporation, 72 h, read-out: Kera. Prolif. IC50
Method: The Keratinocyte Proliferation Assay
This Assay is indicative for the treatment of psoriasis. An acceptable test result is IC50 value of less than or equal to 300 nM. Preferred assay results are IC50 values of less than 100 nM.
KERtr cells (Human skin keratinocyte) are transformed with a retrovirus vector, obtained from ATCC, then are plated in 96-well flat-bottomed plates (3000 cells/well) in 100 μl keratinocyte serum free medium supplemented with bovine pituitary extract in the absence of EGF (Life Technologies, Rockville, Md.) and are incubated at 37° C. for two days. The cells are treated with various concentrations of VDR ligands (ten-fold serial dilution from 10,000 nM to 0.1 nM in triplicate), dissolved in 100 μl keratinocyte serum free medium supplemented with bovine pituitary extract in the absence of EGF and are incubated at 37° C. for 72 h. BrdU (5-bromo-2′-deoxyuridine) incorporation is analyzed as a measure of DNA replication (Cell proliferation ELISA kit, Roche Diagnostics, Indianapolis, Ind.) and absorbance is measured at 405 nm. Potency values (IC50) values were determined as the concentration (nM) of compound that elicited a half-maximal response.

RXR-VDR heterodimer = target: T1, RXR-VDR heterodimer (Homo sapiens, UniProt P11473); test: RXR-VDR heterodimerization (SaOS-2 cells) test; settings: Gal-4-RXR-DEF and VP16-VDR-LBD, luciferase reporter
T1 construct: add the Gal-4-RXR-DEF and VP16-VDR-LBD; expressed in transfected cells; host or cells: SaOS-2 cells
T1 sequence (P11473 127-423 limits assumed): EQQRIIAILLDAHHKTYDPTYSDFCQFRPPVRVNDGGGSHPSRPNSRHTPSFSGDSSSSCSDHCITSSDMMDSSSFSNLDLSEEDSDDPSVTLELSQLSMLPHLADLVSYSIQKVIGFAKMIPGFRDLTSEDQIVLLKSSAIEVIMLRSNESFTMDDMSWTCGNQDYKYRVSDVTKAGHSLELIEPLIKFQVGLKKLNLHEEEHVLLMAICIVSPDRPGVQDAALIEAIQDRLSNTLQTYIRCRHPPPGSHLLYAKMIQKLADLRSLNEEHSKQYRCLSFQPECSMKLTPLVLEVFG
T1 sequence (P19793 201-462 partner limits assumed): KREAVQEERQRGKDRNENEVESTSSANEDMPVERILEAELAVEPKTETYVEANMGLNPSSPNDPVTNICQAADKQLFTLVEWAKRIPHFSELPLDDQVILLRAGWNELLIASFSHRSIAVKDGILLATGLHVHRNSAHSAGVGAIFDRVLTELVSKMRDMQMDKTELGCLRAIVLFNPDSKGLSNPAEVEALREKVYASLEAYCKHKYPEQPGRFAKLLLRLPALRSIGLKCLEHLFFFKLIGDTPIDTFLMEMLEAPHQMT
Method: 1. The RXR-VDR heterodimerAssay:
This assay provides the VDR activity of a test compound. It is desirable to have low EC50 values for a compound in this assay. […] Desired assay results are EC50 values less than or equal to 600 nM. Preferred assay results are less than 250 nM, and most preferably less than 150 nM.
(1) Materials and Method for RXR-VDR Heterodimerization Assay Transfection Method: Reagents: FuGENE 6 Transfection Reagent (Roche Cat # 1 814 443); Growth Media: D-MEM High Glucose (Gibco BRL Cat # 11054-020), 10% heat inactivated FBS (Gibco BRL Cat # 10092-147), 1% antibiotic-antimycotic (Ab-Am); (Gibco BRL Cat # 15240-062). Cells: Grow SaOS-2 cells in T-150 cm^2 culture flasks in growth media keeping the density at 5-6×10^5 cells/ml. Passage cells 1:3 twice a week. Add Trypsin EDTA (Gibco BRL Cat # 25300-020) and incubate. Resuspend cells in plating media and transfer into growth media. Wash Media: HBSS Low Glucose Without Phenol Red (Gibco BRL Cat # 14175-095), 1% Ab-Am. Plating Media: D-MEM Low Glucose Without Phenol Red (Gibco BRL Cat # 11054-020), 1% Ab-Am; D-MEM; 10% Stripped FBS (Hyclone Cat# SH30068.03 Lot # AHM9371). Transfection/Treatment Media: D-MEM Low Glucose Without Phenol Red only; T-150 cm^2 culture flask: Use Corning Coastar T-150 cm^2 culture flask (Cat #430825) to grow the cells. Luciferase Assay Reagent: Use Steady-Glo Luciferase Reagent from Promega (Cat # E2550) Consists of: E2533 Assay Substrate, lypholized product and E2543 Assay Buffer. Thaw at room temperature and store. Cell Harvesting/Count: Aspirate media from culture flask, rinse cells with HBSS and aspirate. Add trypsin and incubate. When cells appear detached, resuspend cells in growth media. Transfer into a new flask with fresh growth media for passaging the cells. Plate 96 well plates and two extra plates. Mix the cell suspension using pipette. To count the cells using a Hematocytometer. Plate seeding: Use plating media 10% Stripped FBS in D-MEM Low Glucose, without Phenol Red, 1% Ab-Am. Plate 14 plates @ 165 μl/well. In sterile flask add cell suspension to plating media and mix. Add cells/well. Place the cells in the incubator. Cells should be about 75% confluent prior to transfection. DAY 2: Transfection: Step 1, DNA and Media: Add plain DMEM media to tubes for mixing the DNA; add the Reporter gene pFR-LUC; and add the Gal-4-RXR-DEF and VP16-VDR-LBD. Step 2, FuGENE and Media: Prepare plain DMEM media in a tubes for mixing FuGENE, add FuGENE 6 Transfection Reagent, and incubate. Step 3, FuGENE, DNA and Media Complex: Add FuGENE Media complex from step 2 to DNA Media complex from step 1 and incubate. Step 4, FuGENE, DNA and Media Complex to 96 well plate: Add FuGENE-DNA-Media complex from step 3 to each plate. Incubate. Day 3: Dosing: Treatment preparation. Allow for transfection time. Make a stock solution of the compounds in DMSO and vortex until all the compounds have been dissolved. Further dilute in D-MEM (Low Glucose—without Phenol Red) Add compounds in quadruplicate to give desired final volume then incubate. Day 4: Luciferase Assay: Read the plates after drug treatment. Remove part of media from all the wells and leave remainder. Add Steady-Glo Luciferase Reagent mixture/wells and incubate. Count each well using a Luminescence counter, Top Count NXT by Packard preferably set a delay between plates to reduce the background.

rat osteocalcin promoter = test: OCN (osteocalcin) Promoter Assay; settings: RG-15 (ROS17/2.8) cells, luciferase reporter, 48 h treatment
Method: The OCN (osteocalcin) Promoter Assay
The OCN Promoter Assay is an indicator and marker for osteoporosis. Desired assay results are EC50 less than or equal to 325 nM. Preferred assay results are less than 50 nM.
The activation of osteocalcin by VDR ligands is evaluated in a rat osteoblast-like cell line RG-15 (ROS17/2.8) stably expressing rat osteocalcin promoter fused with luciferase reporter gene. The stable cell lines are established as reported before (Activation of Osteocalcin Transcription involves interaction of protein kinase A- and Protein kinase C-dependent pathways. Boguslawski, G., Hale, L. V., Yu, X.-P., Miles, R. R., Onyia, J. E., Santerre R. F., Chandrasekhar, S. J. Biol. Chem. 275, 999-1006, 2000). Confluent RG-15 cells maintained in DMEM/F-12 medium (3:1) containing 5% FBS, 300 μg/ml G418 and at 37° C. under 5% CO2/95% air atmosphere are trypsinized (0.25% trypsin) and plated into white opaque 96-well cell culture plates (25000 cells/well). After 24 h, cells (in DMEM/F-12 medium+2% FBS) are treated with various concentrations of compounds, dissolved in DMSO. The final DMSO concentration remains at 0.01% (v/v). After 48 h treatment, the medium is removed, cells are lysed with 50 μl of lysis buffer (From Luciferase reporter assay system, Roche Diagnostics, Indianapolis, Ind.) and then assayed for luciferase activity using the Luciferase Reporter Gene Assay kit from Boehringer Mannheim as per manufacturer's specifications.

| Compound | IC50 [1] [nM] | EC50 (RXR-VDR heterodimer) [nM] | EC50 (rat osteocalcin promoter) [nM] |
| --- | --- | --- | --- |
| CCC(CC)(c1ccc(OCC(=O)C(C)(C)C)c(C)c1)c1nc2cc(C(N)=O)ccc2o1 [Ex 7, 2-{1-[4-(3,3-Dimethyl-2-oxo-butoxy)-3-methyl-phenyl]-1-ethyl-propyl}-benzooxazole-5-carboxylic acid amide] | > 1000 | 177 | – |
| CCC(CC)(c1ccc(OCC(=O)C(C)(C)C)c(C)c1)c1nc2cc(C(=O)N(C)C)ccc2o1 [Ex 8, 2-{1-[4-(3,3-Dimethyl-2-oxo-butoxy)-3-methyl-phenyl]-1-ethyl-propyl}-benzooxazole-5-carboxylic acid dimethylamide] | > 1000 | 117 | – |
| CCC(CC)(c1ccc(OCC(=O)C(C)(C)C)c(C)c1)c1nc2cc(C(=O)NCC(=O)O)ccc2o1 [Ex 9, [(2-{1-[4-(3,3-Dimethyl-2-oxo-butoxy)-3-methyl-phenyl]-1-ethyl-propyl}-benzooxazole-5-carbonyl)-amino]-acetic acid] | > 1000 | 150 | – |
| CCC(CC)(c1ccc(OCC(=O)C(C)(C)C)c(C)c1)c1nc2ccc(C(=O)O)cc2o1 [Ex. 1, 2-{1-[4-(3,3-dimethyl-2-oxo-butoxy)-3-methyl-phenyl]-1-ethyl-propyl}-benzooxazole-6-carboxylic acid] | – | 1120 | 376 |
| CCC(CC)(c1ccc(OCC(=O)C(C)(C)C)c(C)c1)c1nc2ccc(C(N)=O)cc2o1 [Ex. 2, 2-{1-[4-(3,3-Dimethyl-2-oxo-butoxy)-3-methyl-phenyl]-1-ethyl-propyl}-benzooxazole-6-carboxylic acid amide] | > 1000 | 73 | 289 |
| CCC(CC)(c1ccc(OCC(=O)C(C)(C)C)c(C)c1)c1nc2ccc(C(=O)N(C)C)cc2o1 [Ex. 3, 2-{1-[4-(3,3-Dimethyl-2-oxo-butoxy)-3-methyl-phenyl]-1-ethyl-propyl}-benzooxazole-6-carboxylic acid dimethylamide] | – | 701 | 1640 |
| CCC(CC)(c1ccc(OCC(=O)C(C)(C)C)c(C)c1)c1nc2ccc(C(=O)NCC(=O)O)cc2o1 [Ex. 4, [(2-{1-[4-(3,3-dimethyl-2-oxo-butoxy)-3-methyl-phenyl]-1-ethyl-propyl}-benzooxazole-6-carbonyl)-amino]-acetic acid] | – | 700 | 1170 |
| CCC(CC)(c1ccc(OCC(=O)C(C)(C)C)c(C)c1)c1nc2cc(C(=O)O)ccc2o1 [Ex. 5, 2-{1-[4-(3,3-Dimethyl-2-oxo-butoxy)-3-methyl-phenyl]-1-ethyl-propyl}-benzooxazole-5-carboxylic acid] | > 1000 | 37 | 8 |
| CCC(CC)(c1ccc(OCC(O)C(C)(C)C)c(C)c1)c1nc2cc(C(=O)O)ccc2o1 (centres unmarked) [Ex. 6, 2-{1-Ethyl-1-[4-(2-hydroxy-3,3-dimethyl-butoxy)-3-methyl-phenyl]-propyl}-benzooxazole-5-carboxylic acid] | 36 | 5 | – |
